Reference: ChEMBL document CHEMBL3727348, “3-(aryl or heteroaryl) methyleneindolin-2-one derivatives as inhibitors of cancer stem cell pathway kinases for the treatment of cancer” (2014)

Key:
Assay type in all cases: functional, cell-based
[1] = system: FaDu; test: Cytotoxic activity against human FADU bulk cells incubated for 72 hrs by Cell-titer-Glo luminescence assay
[2] = system: A549; test: Cytotoxic activity against human A549 bulk cells incubated for 72 hrs by Cell-titer-Glo luminescence assay; conditions: A549, 72 h
[3] = system: ACHN; test: Cytotoxic activity against human ACHN bulk cells incubated for 72 hrs by Cell-titer-Glo luminescence assay
[4] = system: FaDu; test: Cytotoxic activity against human FADU cancer stem cells incubated for 72 hrs by Cell-titer-Glo luminescence assay
[5] = system: A549; test: Cytotoxic activity against human A549 cancer stem cells incubated for 72 hrs by Cell-titer-Glo luminescence assay; conditions: A549, 72 h
[6] = system: ACHN; test: Cytotoxic activity against human ACHN cancer stem cells incubated for 72 hrs by Cell-titer-Glo luminescence assay

Compound | IC50 [1] [µM] | IC50 [2] [µM] | IC50 [3] [µM] | IC50 [4] [µM] | IC50 [5] [µM] | IC50 [6] [nM]
Cc1[nH]c(/C=C2\C(=O)Nc3ccc(-c4ccc(-c5ccccc5)s4)cc32)c(C)c1C(=O)N1CCOCC1 | 21.1 | 10.1 | 12.8 | 2.47 | 11 | 230
Cc1cc(C)c(/C=C2\C(=O)Nc3ccc(-c4cnc(-c5ccccc5)cn4)cc32)[nH]1 | – | – | – | – | – | 6800
CCN(CC)CCNC(=O)c1c(C)[nH]c(/C=C2\C(=O)Nc3cc(-c4ccc5ccccc5n4)ccc32)c1C | 16.6 | 16.4 | – | 5.15 | 6.59 | 1360
O=C1Nc2ccc(-c3csc(-c4ccccc4)n3)cc2/C1=C/c1ncc[nH]1 | 7.57 | 17.2 | 1.44 | 2.5 | 2.31 | 2910
CCN(CC)CCNC(=O)c1c(C)[nH]c(/C=C2\C(=O)Nc3ccc(-c4ccc(OC)cc4C)cc32)c1C | 2.31 | 1.74 | 2.26 | 1.4 | 4.61 | 1420
CCN(CC)CCNC(=O)c1c(C)[nH]c(/C=C2\C(=O)Nc3ccc(-c4ncccc4C)cc32)c1C | 7.67 | 4.14 | 4.15 | 20 | 13.1 | 1880
CCN(CC)CCNC(=O)c1c(C)[nH]c(/C=C2\C(=O)Nc3ccc(-c4csc(-c5ccc(C)cc5)n4)cc32)c1C | – | – | – | 3.4 | 10.5 | 690
CCN(CC)CCNC(=O)c1c(C)[nH]c(/C=C2\C(=O)Nc3ccc(-c4csc(C(=O)O)c4)cc32)c1C | – | 7.79 | 7.74 | 14.1 | 14.1 | 1280
Cc1ccc(-c2ccc3c(c2)/C(=C/c2[nH]c(C)cc2C)C(=O)N3)nc1 | 37.3 | – | – | – | – | 50
CCN(CC)CCNC(=O)c1c(C)[nH]c(/C=C2\C(=O)Nc3ccc(-c4cccc(OC)n4)cc32)c1C | 1.76 | 2.79 | 1.96 | 0.19 | 2.24 | 240
CCN(CC)CCNC(=O)c1c(C)[nH]c(/C=C2\C(=O)Nc3ccc(-c4ccc(C)cn4)cc32)c1C | 3.05 | 6.51 | 2.92 | 0.22 | 3.38 | 1160
CCN(CC)CCNC(=O)c1c(C)[nH]c(/C=C2\C(=O)Nc3ccc(-c4csc(-c5cccc(CCC(=O)O)c5)n4)cc32)c1C | 1.77 | – | 1.27 | 4.88 | 4.21 | –
CCN(CC)CCNC(=O)c1c(C)[nH]c(/C=C2\C(=O)Nc3ccc(-c4csc(-n5cccn5)n4)cc32)c1C | 4.68 | 3.71 | 7.88 | 5.11 | 6.64 | 620
O=C1Nc2ccc(-c3csc(-c4ccccc4)n3)cc2/C1=C/c1cnc[nH]1 | 6.14 | 11.2 | 8.74 | 6.32 | 0.9 | –
Cc1cc(C)c(/C=C2\C(=O)Nc3ccc(-c4ccncc4)cc32)[nH]1 | – | – | – | – | – | 6950
Cc1cc(C)c(/C=C2\C(=O)Nc3ccc(-c4ncccn4)cc32)[nH]1 | 26.1 | – | 25.3 | 25.2 | 28.7 | –
Cc1cc(C)c(/C=C2\C(=O)Nc3ccc(-c4cccc5ncccc45)cc32)[nH]1 | 13.4 | 11.1 | 13.2 | 13.1 | 40 | –
Cc1cc(C)c(/C=C2\C(=O)Nc3ccc(-c4cc(-c5ccccc5)ccn4)cc32)[nH]1 | 22.4 | 13.8 | – | – | 35.7 | –
CCN(CC)CCN1CCCc2[nH]c(/C=C3\C(=O)Nc4ccc(-c5csc(C6CCNCC6)n5)cc43)c(C)c2C1=O | 8.67 | 7.06 | – | – | – | 11900
CCN(CC)CCNC(=O)c1c(C)[nH]c(/C=C2\C(=O)Nc3cc(-c4cnc5ccccc5c4)ccc32)c1C | 12.9 | 15.8 | – | 2.83 | 11.6 | 1070
CCOC(=O)c1cc(C)c(/C=C2\C(=O)Nc3ccc(-c4csc(-c5ccccc5)n4)cc32)[nH]1 | 13.5 | 40 | 0.39 | – | 13.2 | –
CCN(CC)CCNC(=O)c1c(C)[nH]c(/C=C2\C(=O)Nc3cc(-c4ccc(-c5ccccc5)cn4)ccc32)c1C | 19.8 | – | – | 1.18 | 4.93 | 2880
Cc1[nH]c(/C=C2\C(=O)Nc3ccc(-c4cnn(-c5ccccn5)c4)cc32)c(C)c1C(=O)N1CCN(C)CC1 | 3.67 | 18.9 | – | 0.24 | 11.7 | –
CSc1cnc(-c2ccc3c(c2)/C(=C/c2[nH]c(C)cc2C)C(=O)N3)cn1 | – | 35.8 | 0.16 | – | – | 18300
O=C1Nc2ccc(-c3csc(-c4ccncc4)n3)cc2/C1=C/c1cc2c([nH]1)CCCC2 | – | – | 37.8 | – | 0.8 | –
